In publication PMC7938888, “Antidepressant drugs act by directly binding to TRKB neurotrophin receptors” (Cell, 2021):

Columns and labels:
mice [1] = experiment: Ocular dominance plasticity (monocular deprivation, intrinsic signal imaging); assay type: in vivo, mouse; settings: adult mice, 10 mg/kg i.p. every second day for 8 days
Experimental: The “transparent skull” preparation was executed as described in literature ([Steinzeig et al., 2017]). Briefly, adult female mice (20-22 weeks old) were anesthetized via i.p. injection with a mixture containing: 0.05 mg/kg fentanyl (Hameln, Germany); 5 mg/kg midazolam (Hameln, Germany); 0.5 mg/kg medetomidine (Orion Pharma, Finland); diluted in saline (B Braun, Germany). The animals’ eyes were covered with protective-gel (Alcon, UK). The animal’s head was shaved and disinfected with ethanol and Betadine. The mouse head was then fixed on the stereotaxic frame and the temperature was maintained at 37°C. A mixture of lidocaine and adrenaline (Orion Pharma, Finland) was applied locally on the head and the skin was cut with spring scissors. The incision area was restricted 2 mm above the bregma and caudal edge of intraparietal bone. The scalp was removed and a focused air stream and a cotton swab were used to clean and stop bleeding. The periosteum was gently scratched away from the skull with an eye scalpel and the temporal muscles were pushed aside, in order to expose enough space around the area of interest to attach the metal holder. When the skull was smooth, white and dry, fat was removed from the skull rapidly by passing on it a cotton swab soaked in acetone and the air current was used to avoid its penetration into the bone. Then, with a metal stick, a thin layer of cyanoacrylate glue (Loctite 401, Henkel, Germany) was applied to the surface of the skull, in order to make the skull transparent. After waiting 10 minutes for the glue to dry, a first layer of acryl was applied on the skull surface with a brush. Acryl was used to prolong the life of the transparency and was prepared by stirring acrylic powder (EUBECOS, Germany) with methacrylate liquid (Densply, Germany) until a nail-polish consistency was reached. After 30 minutes, a second layer of acryl was applied and was left to dry overnight. Finally, the animals were injected s.c. with 5 mg/kg Carprofen (ScanVet, Nord Ireland) for postoperative analgesia and i.p. with a wake-up composed by: 1.2 mg/kg Naloxone (Orpha-Devel Handels und Vertriebs GmbH, Austria), opioid receptor antagonist; 0.5 mg/kg Flumazenil (Hameln, Germany), GABA-A receptor antagonist; 2.5 mg/kg Atipamezole (Vet Medic animal Health Oy, Finland), adrenergic receptor antagonist; diluted in saline (B Braun, Germany). The next day, isoflurane at 4% was used for a couple of minutes to induce the anesthesia and then it was reduced at 2% for the procedure. The acryl layer was polished only on the area of interest, using a hand drill with a polishing bit. […]
Optical imaging. The saturation of haemoglobin in the primary visual cortex of the right hemisphere was measured to assess cortical activity ([Cang et al., 2005]; [Kalatsky and Stryker, 2003]). […]

mice [2] = experiment: BrdU incorporation (hippocampal neurogenesis); assay type: in vivo, mouse; settings: FLX 15 mg/kg/day 21 days p.o.
Experimental: Animals: both males and females were used in this experiment. The Bromodeoxyuridine (BrdU) (Sigma) was administered intraperitoneally at the dose of 75 mg/kg four times every 2 hr to reach 300 mg/kg total for each animal. […] On day 21 of the drug treatment, the animals were euthanized by CO2, brains were quickly removed, followed by hippocampus dissection on ice, instantly frozen on dry ice and stored at −80°C until further use.
A semiquantitative dot-blot method was performed as previously described with minor modifications ([Wu and Castrén, 2009]). To isolate the DNA of the hippocampus samples, DNeasy® Blood and Tissue Kit (QIAGEN, Germany) was used. The extraction procedure was as per the manufacturer’s instruction. The DNA purity was assessed by the spectrophotometer NanoDrop 2000C (ThermoFisher Scientific, USA). DNA was incubated with 1 volume of 4N NaOH solution for 30 min at room temperature to render it as single stranded and immediately kept on ice to prevent reannealing. The DNA solution was neutralized by an equal volume of 1M Tris-HCl (pH 6.8). The single-stranded neutralized DNA (1ug) was dot-blotted onto a nylon transfer membrane (Schlleicher and Schuell, Keene, NH) with a dot-blot apparatus (Minifold, Schlleicher and Schuell) under vacuum and the DNA was fixed by ultraviolet cross-linker (1200 μJ × 100, Stratagene, La Jolla, CA). […]

TRKB.T1ΔEC = experiment: Cell-free ligand binding assay, TRKB deletion construct; settings: construct with TMD and short juxtamembrane sequences only

| Compound | shift in ocular dominance after 7-day monocular deprivation (mice [1]) | survival of newborn hippocampal neurons (mice [2]; TRKB.Y433F mice) | survival of newborn hippocampal neurons (mice [2]; wild-type mice) | binding to TRKB.T1ΔEC (TRKB.T1ΔEC) |
| --- | --- | --- | --- | --- |
| CNC1(c2ccccc2Cl)CCCCC1=O (stereo not shown) [KET, ketamine] | significant shift in OD | – | – | – |
| CNCCC(Oc1ccc(C(F)(F)F)cc1)c1ccccc1 (stereo not shown) [FLX, fluoxetine] | – | no increase was observed | significantly increased survival of newborn hippocampal neurons | robust binding |
